Laboratory results taken from publication PMC8196714, “Design, Radiosynthesis and Preliminary Biological Evaluation in Mice of a Brain-Penetrant ^18F-Labelled σ2 Receptor Ligand” (International Journal of Molecular Sciences, 2021).

Assay: In vitro stability of the radioligand in saline, PBS and TRIS-HCl buffer
Type: physicochemical
Settings: 37 °C
Experimental: The in vitro stability of [^18F]RM273 was investigated in saline, phosphate-buffered saline (PBS), and TRIS-HCl buffer (50 mM, pH 7.4) at 37 °C for 2 h, and the radioligand remained intact (90%, 94%, and 100%, respectively; saline for 1 h: 95%). The logD7.4 of [^18F]RM273 was experimentally determined by the shake-flask method as 1.78 ± 0.22 (n = 3), which is well within the range of 1–3.5 recommended for brain targeting compounds [43].
In vitro stability of [^18F]RM273 was determined in saline, phosphate-buffered saline (PBS), and TRIS (50 mM, pH 7.4) by incubation of approx. 5 MBq in 500 µL of each medium at 37 °C. Samples were taken after 30, 60, and 120 min and analyzed by analytical radio-HPLC with a gradient system as applied in Section 5.2.2.

Question: With COc1cc2c(cc1OC)CN(CCCCn1ccc3ccc([18F])nc31)CC2 [[^18F]RM273] as the compound, how does the radioligand remained intact (TRIS-HCl buffer (50 mM, pH 7.4), 2 h) read?
Answer: 100%

Question: And the radioligand remained intact (phosphate-buffered saline (PBS), 2 h)?
Answer: 94%

Question: And the radioligand remained intact (saline, 1 h)?
Answer: 95%

Question: What about the radioligand remained intact (saline, 2 h) of the same compound?
Answer: 90%
